Laboratory results taken from publication PMC3022755, “HP1 Recruits Activity-Dependent Neuroprotective Protein to H3K9me3 Marked Pericentromeric Heterochromatin for Silencing of Major Satellite Repeats” (PLoS ONE, 2011).
Where no end group is shown, it is not given here. [ ]: non-standard residue; d: D form. Lys(Me3) = C[N+](C)(C)CCCC[C@H](N)C(=O)O

Columns and labels:
H3K9me3 peptide [1] = assay: H3K9me3 peptide pulldown with mutant HP1β; assay type: binding; conditions: H3K9me3 peptides on magnetic beads; with ADNP-FLAG; western blot
[2] = tested on: wild type FLAG-tagged ADNP; assay: H3K9me3 peptide pulldown, recruitment of ADNP by mutant HP1β; assay type: binding; conditions: compared to wild type HP1β; wild type FLAG-tagged ADNP in TNT reticulocyte extract; western blot
[3] = tested on: HP1 dimerization and H3K9me3; conditions: ref [27]; cited from earlier work
Description: (§1) We analyzed this recombinant, mutant HP1βprotein in H3K9me3 peptide pulldown experiments with wild type FLAG-tagged ADNP expressed in TNT reticulocyte extract (Figure 5D). W170A mutation had no effect on HP1β bi ...

PxVxL = conditions: ref [27]; cited from earlier work
Description: as §1

recombinant HP1β = assay: Fluorescence polarization binding assay; parameters: species or system human; conditions: fluorescein-labeled peptide, averaged from three independent titration reactions
ADNP = assay: H3 peptide pulldown of HeLa S3 nuclear extract, western blot; assay type: binding; conditions: immobilized H3 (aa 1-21) peptides on magnetic beads, monoclonal anti-ADNP
[4] = tested on: three isoforms of HP1, HP1α HP1β and HP1γ, and CDYL1; assay: H3 peptide pulldown of HeLa S3 nuclear extract, MS/MS identification; assay type: binding; conditions: SDS-PAGE
FLAG-tagged ADNP = assay: H3 peptide pulldown with TNT-expressed FLAG-tagged ADNP; assay type: binding; conditions: TNT reticulocyte extract, western blot
HP1 isoform proteins = assay type: binding, human
[5] = tested on: pericentromeric heterochromatin in NIH3T3 cells; assay: Localization of CFP-ADNP constructs in living NIH3T3 cells; assay type: cell-based, mouse; conditions: transient co-expression with RFP-HP1β; unfixed, living cells of low expression level; confocal
[6] = tested on: pericentromeric heterochromatin in NIH3T3 cells; assay: Localization of YFP-ADNP fusion proteins in living NIH3T3 cells; assay type: cell-based, mouse; conditions: inducible stable NIH3T3 lines, unfixed; for localization to pericentromeric heterochromatin: Hoechst 33342
H3K9me3 peptide [7] = assay type: binding

## HP1β W170A: recombinant His6-HP1β with tryptophan 170 mutated to alanine
H3K9me3 peptide [1]
  HP1β binding to H3K9me3 peptide: no effect on HP1β binding to the H3K9me3 peptide
[2]
  recruitment of ADNP to H3K9me3 in presence of mutant HP1β: severely impaired
[3]
  HP1 dimerization and H3K9me3 binding: without affecting HP1 dimerization and H3K9me3 binding
PxVxL
  HP1-PxVxL interaction: abolish HP1-PxVxL interaction

## EDDSYEAR[Lys(Me3)]SFLTKY [ADNPK767me3 (FP peptide), ADNPK767me3 peptide used for FP measurements]
Recombinant HP1β
  HP1 binding: does not bind
Recombinant HP1β; listed as methylated peptide spanning the ADNP ARKS region
  HP1 binding: did not detect binding

## H3K9me3: H3 (aa 1-21) peptide trimethylated at lysine 9, used for pulldown
ADNP
  enrichment of ADNP on peptide matrix: specific enrichment of ADNP exclusively on the H3K9me3 matrix
[4]
  proteins specifically interacting with H3 tail depending on K9me3: several known H3K9me3 interaction partners like the three isoforms of HP1
FLAG-tagged ADNP; co-incubated with recombinant HP1α
  binding of ADNP to peptide: bound specifically to the H3K9me3 peptide
FLAG-tagged ADNP; co-incubated with recombinant HP1β
  binding of ADNP to peptide: bound specifically to the H3K9me3 peptide
FLAG-tagged ADNP; co-incubated with recombinant HP1γ
  binding of ADNP to peptide: bound specifically to the H3K9me3 peptide
FLAG-tagged ADNP; without HP1
  binding of ADNP to peptide: did not bind to any of the differentially loaded beads
HP1 isoform proteins
  recruitment of HP1 isoform proteins to peptide: concomitant with recruitment of the different HP1 isoform proteins to the H3K9me3 matrix

B1: CFP-ADNP(701-846): CFP fusion of the ADNP homeodomain alone, containing NLS (protein, UniProt Q9Z103 701-846, looked up, fragment)
chain: APSRLNQSPGLAPVKRTYEQMEFPLLKKRKLEEDADSPSCFEEKPEEPVVLALDPKGHEDDSYEARKSFLTKYFNKQPYPTRREIEKLAASLWLWKSDIASHFSNKRKKCVRDCEKYKPGVLLGFNMKELNKVKHEMDFDAEWLFE
modifications: CFP fusion
notes: CFP fusion of the ADNP homeodomain alone, containing NLS
[5]
  localization to pericentromeric heterochromatin: co-localized with HP1β

B2: K767R: YFP-ADNP fusion protein with K767R mutation in ARKS motif (protein, UniProt Q9Z103 1-1108, looked up, variant K767R)
Activity-dependent …: MFQLPVNNLGSLRKARKTVKKILSDIGLEYCKEHIEDFKQFEPNDFYLKNTTWEDVGLWDPSLTKNQDYRTKPFCCSACPFSSKFFSAYKSHFRNVHSEDFENRILLNCPYCTFNADKKTLETHIKIFHAPNSSAPSSSLSTFKDKNKNDGLKPKQADNVEQAVYYCKKCTYRDPLYEIVRKHIYREHFQHVAAPYIAKAGEKSLNGAVSLGTNAREECNIHCKRCLFMPKSYEALVQHVIEDHERIGYQVTAMIGHTNVVVPRAKPLMLIAPKPQDKKGMGLPPRISSLASGNVRSLPSQQMVNRLSIPKPNLNSTGVNMMSNVHLQQNNYGVKSVGQSYGVGQSVRLGLGGNAPVSIPQQSQSVKQLLPSGNGRSFGLGAEQRPPAAARYSLQTANTSLPPGQVKSPSVSQSQASRVLGQSSSKPPPAATGPPPSNHCATQKWKICTICNELFPENVYSVHFEKEHKAEKVPAVANYIMKIHNFTSKCLYCNRYLPTDTLLNHMLIHGLSCPYCRSTFNDVEKMAAHMRMVHIDEEMGPKTDSTLSFDLTLQQGSHTNIHLLVTTYNLRDAPAESVAYHAQNNAPVPPKPQPKVQEKADVPVKSSPQAAVPYKKDVGKTLCPLCFSILKGPISDALAHHLRERHQVIQTVHPVEKKLTYKCIHCLGVYTSNMTASTITLHLVHCRGVGKTQNGQDKTNAPSRLNQSPGLAPVKRTYEQMEFPLLKKRKLEEDADSPSCFEEKPEEPVVLALDPKGHEDDSYEARRSFLTKYFNKQPYPTRREIEKLAASLWLWKSDIASHFSNKRKKCVRDCEKYKPGVLLGFNMKELNKVKHEMDFDAEWLFENHDEKDSRVNASKTVDKKHNLGKEDDSFSDSFEHLEEESNGSGSPFDPVFEVEPKIPSDNLEEPVPKVIPEGALESEKLDQKEEEEEEEEEDGSKYETIHLTEEPAKLMHDASDSEVDQDDVVEWKDGASPSESGPGSQQISDFEDNTCEMKPGTWSDESSQSEDARSSKPAAKKKATVQDDTEQLKWKNSSYGKVEGFWSKDQSQWENASENAERLPNPQIEWQNSTIDSEDGEQFDSMTDGVADPMHGSLTGVKLSSQQA
modifications: YFP fusion
notes: YFP-ADNP fusion protein with K767R mutation in ARKS motif
[6]
  localization to pericentromeric heterochromatin: no effect on ADNP localization

B3: K767R mutant ADNP: FLAG-tagged ADNP, lysine 767 within the ARKS motif changed to arginine (protein, UniProt Q9Z103 1-1108, looked up, variant K767R)
Activity-dependent …: MFQLPVNNLGSLRKARKTVKKILSDIGLEYCKEHIEDFKQFEPNDFYLKNTTWEDVGLWDPSLTKNQDYRTKPFCCSACPFSSKFFSAYKSHFRNVHSEDFENRILLNCPYCTFNADKKTLETHIKIFHAPNSSAPSSSLSTFKDKNKNDGLKPKQADNVEQAVYYCKKCTYRDPLYEIVRKHIYREHFQHVAAPYIAKAGEKSLNGAVSLGTNAREECNIHCKRCLFMPKSYEALVQHVIEDHERIGYQVTAMIGHTNVVVPRAKPLMLIAPKPQDKKGMGLPPRISSLASGNVRSLPSQQMVNRLSIPKPNLNSTGVNMMSNVHLQQNNYGVKSVGQSYGVGQSVRLGLGGNAPVSIPQQSQSVKQLLPSGNGRSFGLGAEQRPPAAARYSLQTANTSLPPGQVKSPSVSQSQASRVLGQSSSKPPPAATGPPPSNHCATQKWKICTICNELFPENVYSVHFEKEHKAEKVPAVANYIMKIHNFTSKCLYCNRYLPTDTLLNHMLIHGLSCPYCRSTFNDVEKMAAHMRMVHIDEEMGPKTDSTLSFDLTLQQGSHTNIHLLVTTYNLRDAPAESVAYHAQNNAPVPPKPQPKVQEKADVPVKSSPQAAVPYKKDVGKTLCPLCFSILKGPISDALAHHLRERHQVIQTVHPVEKKLTYKCIHCLGVYTSNMTASTITLHLVHCRGVGKTQNGQDKTNAPSRLNQSPGLAPVKRTYEQMEFPLLKKRKLEEDADSPSCFEEKPEEPVVLALDPKGHEDDSYEARRSFLTKYFNKQPYPTRREIEKLAASLWLWKSDIASHFSNKRKKCVRDCEKYKPGVLLGFNMKELNKVKHEMDFDAEWLFENHDEKDSRVNASKTVDKKHNLGKEDDSFSDSFEHLEEESNGSGSPFDPVFEVEPKIPSDNLEEPVPKVIPEGALESEKLDQKEEEEEEEEEDGSKYETIHLTEEPAKLMHDASDSEVDQDDVVEWKDGASPSESGPGSQQISDFEDNTCEMKPGTWSDESSQSEDARSSKPAAKKKATVQDDTEQLKWKNSSYGKVEGFWSKDQSQWENASENAERLPNPQIEWQNSTIDSEDGEQFDSMTDGVADPMHGSLTGVKLSSQQA
modifications: FLAG tag
notes: FLAG-tagged ADNP, lysine 767 within the ARKS motif changed to arginine
H3K9me3 peptide [7]
  binding of ADNP protein to H3K9me3 peptide: bound to H3K9me3 peptide in a HP1β dependent manner

B4: V821E: YFP-ADNP fusion protein with V821E mutation in PGVLL motif (protein, UniProt Q9Z103 1-1108, looked up, variant V821E)
Activity-dependent …: MFQLPVNNLGSLRKARKTVKKILSDIGLEYCKEHIEDFKQFEPNDFYLKNTTWEDVGLWDPSLTKNQDYRTKPFCCSACPFSSKFFSAYKSHFRNVHSEDFENRILLNCPYCTFNADKKTLETHIKIFHAPNSSAPSSSLSTFKDKNKNDGLKPKQADNVEQAVYYCKKCTYRDPLYEIVRKHIYREHFQHVAAPYIAKAGEKSLNGAVSLGTNAREECNIHCKRCLFMPKSYEALVQHVIEDHERIGYQVTAMIGHTNVVVPRAKPLMLIAPKPQDKKGMGLPPRISSLASGNVRSLPSQQMVNRLSIPKPNLNSTGVNMMSNVHLQQNNYGVKSVGQSYGVGQSVRLGLGGNAPVSIPQQSQSVKQLLPSGNGRSFGLGAEQRPPAAARYSLQTANTSLPPGQVKSPSVSQSQASRVLGQSSSKPPPAATGPPPSNHCATQKWKICTICNELFPENVYSVHFEKEHKAEKVPAVANYIMKIHNFTSKCLYCNRYLPTDTLLNHMLIHGLSCPYCRSTFNDVEKMAAHMRMVHIDEEMGPKTDSTLSFDLTLQQGSHTNIHLLVTTYNLRDAPAESVAYHAQNNAPVPPKPQPKVQEKADVPVKSSPQAAVPYKKDVGKTLCPLCFSILKGPISDALAHHLRERHQVIQTVHPVEKKLTYKCIHCLGVYTSNMTASTITLHLVHCRGVGKTQNGQDKTNAPSRLNQSPGLAPVKRTYEQMEFPLLKKRKLEEDADSPSCFEEKPEEPVVLALDPKGHEDDSYEARKSFLTKYFNKQPYPTRREIEKLAASLWLWKSDIASHFSNKRKKCVRDCEKYKPGELLGFNMKELNKVKHEMDFDAEWLFENHDEKDSRVNASKTVDKKHNLGKEDDSFSDSFEHLEEESNGSGSPFDPVFEVEPKIPSDNLEEPVPKVIPEGALESEKLDQKEEEEEEEEEDGSKYETIHLTEEPAKLMHDASDSEVDQDDVVEWKDGASPSESGPGSQQISDFEDNTCEMKPGTWSDESSQSEDARSSKPAAKKKATVQDDTEQLKWKNSSYGKVEGFWSKDQSQWENASENAERLPNPQIEWQNSTIDSEDGEQFDSMTDGVADPMHGSLTGVKLSSQQA
modifications: YFP fusion
notes: YFP-ADNP fusion protein with V821E mutation in PGVLL motif
[6]
  localization to pericentromeric heterochromatin: strong reduction of the ADNP signal at regions of pericentromeric heterochromatin
[6]; in all cells analyzed
  residual signal at pericentromeric heterochromatin: faint but significant signal
